Reference: US9902739B2, “Small molecule inhibitors of G protein coupled receptor 6 kinases polypeptides” (Mayo Foundation for Medical Education and Research, priority 2014, dated 2018)

target: T1, GRK6, recombinant full-length GST-tagged human protein (Homo sapiens, UniProt P43250); assay: GRK6 assay, IC50 determination (8-point concentration-response); assay type: biochemical; conditions: Series 3 (Table 13); conditions as Example 18
T1 construct: Enzyme: 20 nM GRK6, recombinant full-length GST-tagged human protein; GST
Protocol: The following assay conditions were used.
Buffer: 50 mM TRIS-HCl, pH 7.5, 5 mM MgCl2, 2 mM DTT, 0.01% Triton X-100, 10 μM Na3VO4, 10 μM b-GP, 1% DMSO
Enzyme: 20 nM GRK6, recombinant full-length GST-tagged human protein
Peptide substrate (Peptide 216): 1 μM
One hundred two compounds (1-1-1-102) were further characterized by determining IC50 values in a GRK6 assay. This screen has been previously described in WO 2013/063458, which is incorporated by reference in its entirety herein. Briefly, the following activities were performed: 8-point concentration-response determinations in singlicate wells (top concentration=60 μM, 3-fold dilution steps); Repeat tests for QC failed or inconclusive compounds; and Repeat tests (titrate down) for compounds with >50% inhibition at all tested concentrations.
Twelve compounds (2-1-2-12) were further characterized by determining the IC50 values in a GRK6 assay. This screen has been previously described in WO 2013/063458, which is incorporated by reference in its entirety herein. Specific activities were performed as described above (Example 18).
Thirty-six compounds (3-1-3-36) were further characterized by determining the IC50 values in a GRK6 assay. This screen has been previously described in WO 2013/063458, which is incorporated by reference in its entirety herein. Specific activities were performed as described above (Example 18).
Fifty-four compounds (4-1-4-54) were further characterized by determining the IC50 values in a GRK6 assay. This screen has been previously described in WO 2013/063458, which is incorporated by reference in its entirety herein. Specific activities were performed as described above (Example 18).

T1 sequence (P43250 whole entry): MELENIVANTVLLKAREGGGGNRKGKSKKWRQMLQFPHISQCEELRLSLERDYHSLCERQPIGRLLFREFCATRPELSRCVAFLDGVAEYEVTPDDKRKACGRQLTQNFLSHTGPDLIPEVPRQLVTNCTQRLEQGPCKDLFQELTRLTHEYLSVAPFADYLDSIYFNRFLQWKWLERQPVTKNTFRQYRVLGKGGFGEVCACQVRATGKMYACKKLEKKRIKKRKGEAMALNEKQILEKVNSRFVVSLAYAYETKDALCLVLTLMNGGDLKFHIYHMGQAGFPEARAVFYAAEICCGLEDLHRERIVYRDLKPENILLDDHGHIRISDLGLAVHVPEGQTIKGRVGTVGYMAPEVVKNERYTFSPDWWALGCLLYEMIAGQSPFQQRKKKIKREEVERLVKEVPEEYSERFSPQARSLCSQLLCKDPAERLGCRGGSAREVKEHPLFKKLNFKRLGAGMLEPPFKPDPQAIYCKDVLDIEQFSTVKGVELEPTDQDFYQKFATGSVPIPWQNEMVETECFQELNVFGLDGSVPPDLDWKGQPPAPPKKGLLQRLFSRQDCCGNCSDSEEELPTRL

In order of falling IC50:
1. Cc1cccc(-c2nnc(SCc3nnn[nH]3)[nH]2)c1 [Compound 3-35, 5-(((5-(m-tolyl)-1H-1,2,4-triazol-3-yl)thio)methyl)-1H-tetrazole]  16.9 µM
2. CN(C)S(=O)(=O)c1cccc(-c2ccc(-c3nnc(SCc4nnn[nH]4)[nH]3)o2)c1 [Compound 3-34]  9.09 µM
3. O=[N+]([O-])c1cc(-c2ccccc2)cc(-c2nnc(SCc3nnn[nH]3)[nH]2)c1 [Compound 3-36]  9.05 µM
4. N#Cc1ccc(-c2ccc(-c3nnc(SCc4nnn[nH]4)[nH]3)o2)cc1 [Compound 3-33]  8.91 µM
5. c1cncc(-c2ccc(-c3nnc(SCc4nnn[nH]4)[nH]3)o2)c1 [Compound 3-32]  8.63 µM
6. CS(=O)(=O)c1cccc(-c2ccc(-c3nnc(SCc4nnn[nH]4)[nH]3)o2)c1 [Compound 3-31]  7.45 µM
7. CNS(=O)(=O)c1cccc(-c2ccc(-c3nnc(SCc4nnn[nH]4)[nH]3)o2)c1 [Compound 3-30]  7.16 µM
8. Fc1ccc(-c2ccc(-c3nnc(SCc4nnn[nH]4)[nH]3)o2)cc1F [Compound 3-29]  6.9 µM
9. c1ccc(-c2ccc(-c3nnc(SCc4nnn[nH]4)[nH]3)o2)cc1 [Compound 3-28]  6.21 µM

same assay, conditions: Series 4 (Table 14); conditions as Example 18

First: O=C(O)CSc1nnc(-c2ccc(-c3cc(Cl)cc(Cl)c3)s2)[nH]1 [Compound 4-1]
Second: O=C(O)CSc1nnc(-c2ccc(-c3ccccc3)s2)[nH]1 [Compound 4-5]
The IC50 of the first is 2.1-fold lower: 0.595 µM for the first, 1.27 µM for the second.

`O=C(O)CSc1nnc(-c2cnc3cc(OCc4ccccc4)ccc3c2)[nH]1` [Compound 4-2] and `O=C(O)CSc1nnc(-c2cnc3ccccc3c2)[nH]1` [Compound 4-4] are within 1.5-fold of each other in IC50: 0.78 µM for the first, 1.12 µM for the second.

Going from `O=C(O)CSc1nnc(-c2cnn(-c3ccccc3)c2)[nH]1` [Compound 4-3] to `O=C(O)CSc1nnc(-c2cnn(-c3cccc(Cl)c3)c2)[nH]1` [Compound 4-6, 2-((5-(1-(3-chlorophenyl)-1H-pyrazol-4-yl)-4H-1,2,4-triazol-3-yl)thio)acetic acid], the IC50 rises from 1.01 µM to 2.01 µM (2-fold). The first is the more potent here.

Going from `O=C(O)CSc1nnc(-c2csc3ccccc23)[nH]1` [Compound 4-7] to `O=C(O)CSc1nnc(-c2c[nH]c3ccccc23)[nH]1` [Compound 4-49], the IC50 rises from 2.56 µM to over 100 µM. The first is the more potent here.

`O=C(O)CSc1nnc(-c2cc3ccccc3s2)[nH]1` [Compound 4-8] and `Cc1ccc2sc(-c3nnc(SCC(=O)O)[nH]3)cc2c1` [Compound 4-9] are within 1.5-fold of each other in IC50: 2.58 µM for the first, 2.61 µM for the second.

First: O=C(O)CSc1nnc(-c2ccc(-c3ccc4ccccc4c3)s2)[nH]1 [Compound 4-10]
Second: O=C(O)CSc1nnc(-c2ccc(-c3ccccn3)s2)[nH]1 [Compound 4-16]
The IC50 of the first is 2.2-fold lower: 2.98 µM for the first, 6.54 µM for the second. The first is the more potent here.

Compared with `O=C(O)CSc1nnc(-c2cnc(-c3ccccc3)s2)[nH]1` [Compound 4-11], `Cn1ncc(-c2nnc(SCC(=O)O)[nH]2)c1-c1ccccc1` [Compound 4-14] is 1.6-fold higher in IC50: 3.64 µM for the first, 5.7 µM for the second. The first is the more potent here.

Compared with `O=C(O)CSc1nnc(-c2cncc(Br)c2)[nH]1` [Compound 4-12], `COc1cncc(-c2nnc(SCC(=O)O)[nH]2)c1` [Compound 4-24] is 3.1-fold higher in IC50: 4.11 µM for the first, 12.9 µM for the second.

Compared with `Nc1ncc(-c2nnc(SCC(=O)O)[nH]2)s1` [Compound 4-13], `Nc1ncc(-c2nnc(SCC(=O)O)[nH]2)cn1` [Compound 4-21] is 2.1-fold higher in IC50: 4.64 µM for the first, 9.61 µM for the second. The first is the more potent here.

First: O=C(O)CSc1nnc(-c2c[nH]nc2-c2ccccc2)[nH]1 [Compound 4-15]
Second: O=C(O)CSc1nnc(-c2ccc3ccccc3n2)[nH]1 [Compound 4-25]
The IC50 of the first is 2.1-fold lower: 6.29 µM for the first, 13 µM for the second.

Going from `CN(C)c1ncc(-c2nnc(SCC(=O)O)[nH]2)cn1` [Compound 4-17] to `Cc1ncc(-c2nnc(SCC(=O)O)[nH]2)cn1` [Compound 4-30], the IC50 rises from 7.1 µM to 27.8 µM (3.9-fold).

Compared with `Cn1nc(C(F)(F)F)cc1-c1ccc(-c2nnc(SCC(=O)O)[nH]2)s1` [Compound 4-18], `O=C(O)CSc1nnc(-c2ccc(C(F)(F)F)nc2)[nH]1` [Compound 4-48] is higher in IC50: 7.41 µM for the first, over 54 µM for the second.

First: CCc1n[nH]cc1-c1nnc(SCC(=O)O)[nH]1 [Compound 4-19]
Second: Cc1nc(-c2nnc(SCC(=O)O)[nH]2)c[nH]1 [Compound 4-52]
The IC50 of the first is lower: 8.96 µM for the first, over 100 µM for the second.

`O=C(O)CSc1nnc(-c2ccc(Oc3ccccc3)nc2)[nH]1` [Compound 4-20] and `COc1ccc(-c2nnc(SCC(=O)O)[nH]2)cn1` [Compound 4-26] are within 1.5-fold of each other in IC50: 9.21 µM for the first, 13 µM for the second.

Going from `O=C(O)CSc1nnc(-c2ccc(N3CCOCC3)nc2)[nH]1` [Compound 4-22] to `O=C(O)CSc1nnc(-c2cccnc2N2CCOCC2)[nH]1` [Compound 4-41], the IC50 rises from 11.3 µM to over 100 µM.

First: O=C(O)CSc1nnc(-c2[nH]ncc2Br)[nH]1 [Compound 4-23]
Second: Cc1nc[nH]c1-c1nnc(SCC(=O)O)[nH]1 [Compound 4-50]
The IC50 of the first is lower: 12.3 µM for the first, over 100 µM for the second. The first is the more potent here.

First: COc1ccc2c(-c3nnc(SCC(=O)O)[nH]3)c[nH]c2c1 [Compound 4-27]
Second: COc1cccc(-c2nnc(SCC(=O)O)[nH]2)n1 [Compound 4-32]
The IC50 of the first is 1.6-fold lower: 20.7 µM for the first, 32.5 µM for the second.

Going from `O=C(O)CSc1nnc(-c2csnn2)[nH]1` [Compound 4-28] to `Cc1ncsc1-c1nnc(SCC(=O)O)[nH]1` [Compound 4-51], the IC50 rises from 22.3 µM to over 100 µM. The first is the more potent here.

Compared with `Cc1csc2sc(-c3nnc(SCC(=O)O)[nH]3)c(C)c12` [Compound 4-29], `Cc1nc(C)c(-c2nnc(SCC(=O)O)[nH]2)s1` [Compound 4-43] is higher in IC50: 27.3 µM for the first, over 100 µM for the second.

Compared with `CSc1nc(-c2nnc(SCC(=O)O)[nH]2)ccc1C#N` [Compound 4-31], `O=C(O)CSc1nnc(-c2ccc(F)cn2)[nH]1` [Compound 4-35] is 2.5-fold higher in IC50: 31.2 µM for the first, 78.7 µM for the second. The first is the more potent here.

Going from `O=C(O)CSc1nnc(-c2ccc(Cl)cn2)[nH]1` [Compound 4-33] to `O=C(O)CSc1nnc(-c2ccc3cccnc3n2)[nH]1` [Compound 4-45], the IC50 rises from 35.3 µM to over 86 µM.

Compared with `Cn1c(-c2nnc(SCC(=O)O)[nH]2)cc2ccccc21` [Compound 4-34], `Cc1nc(-c2nnc(SCC(=O)O)[nH]2)c2ccccn12` [Compound 4-46] is higher in IC50: 38.8 µM for the first, over 80 µM for the second.

First: CCc1nc(C)c(-c2nnc(SCC(=O)O)[nH]2)[nH]1 [Compound 4-36]
Second: Cc1noc(C)c1-c1nnc(SCC(=O)O)[nH]1 [Compound 4-40]
The IC50 of the first is lower: 82.7 µM for the first, over 100 µM for the second.

`Cn1cc(Cl)c(-c2nnc(SCC(=O)O)[nH]2)n1` [Compound 4-37] and `Cc1c(-c2nnc(SCC(=O)O)[nH]2)cnn1C` [Compound 4-38] are within 1.5-fold of each other in IC50: 89.2 µM for the first, 95.4 µM for the second.

`NC(=O)Cn1cc(-c2nnc(SCC(=O)O)[nH]2)c2ccccc21` [Compound 4-39] and `O=C(O)CSc1nnc(-c2cccn2S(=O)(=O)c2ccccc2)[nH]1` [Compound 4-44] cannot be ordered by IC50: over 100 µM for the first, over 100 µM for the second.

`O=C(O)CSc1nnc(-c2cc3cccc4c3n(c2=O)CC4)[nH]1` [Compound 4-42] and `CC(C)(C)C(=O)Nc1ncccc1-c1nnc(SCC(=O)O)[nH]1` [Compound 4-47] cannot be ordered by IC50: over 100 µM for the first, over 64 µM for the second.

With `COc1ccc2cc(-c3[nH]nc(SCC(=O)O)c3Br)ccc2c1` [Compound 4-53] the IC50 was over 100 µM.
